PubChem BioAssay AID330 (DTP/NCI, 2004)
Where “and” joins values, the source holds several entries; their conditions need not be identical. Equal entries are not always repeated. Inconclusive results and toxic doses are left out. How the source made its calls: active means survival T/C of 150% or more; inactive means T/C below 125% in these data.

Test system: P388 leukemia ip, CD2F1 mice, survival T/C
Assay: NCI In Vivo Anticancer Drug Screen. Data for tumor model P388 Leukemia (intraperitoneal) in CD2F1 (CDF1) mice
Details: endpoint: median survival time, higher = longer survival
In short: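 Mice carrying the transplanted tumor received test compound or vehicle. Survival was recorded in each group, and the value is the treated-group measurement divided by that of the vehicle-treated control group.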

[1] = dose: 100.0 mg/kg/injection, schedule: Q01DX001 (ip), vehicle: saline with Tween-80
[2] = dose: 50.0 mg/kg/injection, schedule: Q01DX005 (ip), vehicle: saline with Tween-80
[3] = dose: 100.0 mg/kg/injection, schedule: Q01DX005 (ip), vehicle: saline with Tween-80
[4] = dose: 50.0 mg/kg/injection, schedule: Q01DX005 (ip), vehicle: Klucel (hydroxypropylcellulose) (HPC)
[5] = dose: 100.0 mg/kg/injection, schedule: Q01DX005 (ip), vehicle: Klucel (hydroxypropylcellulose) (HPC)
[6] = dose: 200.0 mg/kg/injection, schedule: Q01DX005 (ip), vehicle: Klucel (hydroxypropylcellulose) (HPC)

Measured: T/C

CC(C)NCc1ccccc1Sc1ccccc1CNC(C)C
inactive: dose: 25.0 mg/kg/injection, schedule: Q01DX001 (ip), vehicle: saline with Tween-80 99 % of control | dose: 25.0 mg/kg/injection, schedule: Q04DX002 (ip), vehicle: saline 103 % of control | dose: 50.0 mg/kg/injection, schedule: Q01DX001 (ip), vehicle: saline with Tween-80 98 % of control | dose: 50.0 mg/kg/injection, schedule: Q04DX002 (ip), vehicle: saline 103 % of control | [1] 98 % of control | dose: 100.0 mg/kg/injection, schedule: Q04DX002 (ip), vehicle: saline 103 % of control

c1ccc2c(c1)CCc1ccccc1C2NC1=NCCSC1
inactive: dose: 50.0 mg/kg/injection, schedule: Q01DX009 (ip), vehicle: saline with Tween-80 86 % of control | dose: 100.0 mg/kg/injection, schedule: Q01DX009 (ip), vehicle: saline with Tween-80 93 % of control

CCOC(=O)C(N=Nc1nn[nH]n1)c1ncn[nH]1 (stereo unspecified)
inactive: dose: 50.0 mg/kg/injection, schedule: Q01DX001 (ip), vehicle: Klucel (hydroxypropylcellulose) (HPC) 98 % of control | dose: 100.0 mg/kg/injection, schedule: Q01DX001 (ip), vehicle: Klucel (hydroxypropylcellulose) (HPC) 98 % of control | dose: 200.0 mg/kg/injection, schedule: Q01DX001 (ip), vehicle: Klucel (hydroxypropylcellulose) (HPC) 91 % of control

CC(=O)Nc1ccccc1/C=C/c1ccccn1
inactive: [1] 106 % of control | dose: 200.0 mg/kg/injection, schedule: Q01DX001 (ip), vehicle: saline with Tween-80 106 % of control | dose: 400.0 mg/kg/injection, schedule: Q01DX001 (ip), vehicle: saline with Tween-80 95 % of control

O=C(O)C(O)(C1CCCCC1)C1CCC(C2CCCCC2)CC1C1CCCCC1 (stereo unspecified)
inactive: [2] 98 % of control | [3] 102 % of control | dose: 200.0 mg/kg/injection, schedule: Q01DX005 (ip), vehicle: saline with Tween-80 100 % of control

CCOc1cc(C=Nc2cc(Cl)c(O)c(Cl)c2)ccc1N(CCCl)CCCl
inactive: dose: 3.13 mg/kg/injection, schedule: Q04DX003 (ip), vehicle: saline with Tween-80 122 % of control | dose: 50.0 mg/kg/injection, schedule: Q04DX003 (ip), vehicle: saline with Tween-80 90 % of control
active: dose: 12.5 mg/kg/injection, schedule: Q01DX009 (ip), vehicle: saline with Tween-80 218 % of control | dose: 12.5 mg/kg/injection, schedule: Q04DX003 (ip), vehicle: saline with Tween-80 168 % of control | dose: 16.5 mg/kg/injection, schedule: Q04DX003 (ip), vehicle: saline with Tween-80 171 % of control | dose: 25.0 mg/kg/injection, schedule: Q01DX009 (ip), vehicle: saline with Tween-80 150 % of control | dose: 25.0 mg/kg/injection, schedule: Q04DX003 (ip), vehicle: saline with Tween-80 185 % of control and 200 % of control | dose: 37.5 mg/kg/injection, schedule: Q04DX003 (ip), vehicle: saline with Tween-80 204 % of control

CN1CCN(CC(O)COc2c3ccccc3nc3ccccc23)CC1 (stereo unspecified)
inactive: [2] 104 % of control | [3] 95 % of control

C/C(=N\N=C\N(C)S(=O)(=O)c1ccc(C)cc1)c1ccccc1
inactive: [4] 104 % of control | [5] 98 % of control | [6] 95 % of control

O=C1C2CCCC1C(c1ccccc1)NC2c1ccccc1 (stereo unspecified)
inactive: dose: 25.0 mg/kg/injection, schedule: Q01DX005 (ip), vehicle: Klucel (hydroxypropylcellulose) (HPC) 104 % of control | [4] 102 % of control | [5] 96 % of control | [6] 98 % of control

COc1cc2c(cc1OC)C(C(=O)O)C1c3cc4c(cc3CCN1C2=O)OCO4 (stereo unspecified)
inactive: dose: 50.0 mg/kg/injection, schedule: Q04DX003 (ip), vehicle: distilled water + Tween-80 102 % of control and 115 % of control | dose: 100.0 mg/kg/injection, schedule: Q04DX003 (ip), vehicle: distilled water + Tween-80 105 % of control and 100 % of control | dose: 200.0 mg/kg/injection, schedule: Q04DX003 (ip), vehicle: distilled water + Tween-80 113 % of control and 100 % of control | dose: 400.0 mg/kg/injection, schedule: Q04DX003 (ip), vehicle: distilled water + Tween-80 88 % of control and 100 % of control

N#CC(Cc1ccccc1)c1ccc(Cl)cc1 (stereo unspecified)
inactive: dose: 50.0 mg/kg/injection, schedule: Q01DX009 (ip), vehicle: Klucel (hydroxypropylcellulose) (HPC) 106 % of control | dose: 100.0 mg/kg/injection, schedule: Q01DX009 (ip), vehicle: Klucel (hydroxypropylcellulose) (HPC) 110 % of control | dose: 200.0 mg/kg/injection, schedule: Q01DX009 (ip), vehicle: Klucel (hydroxypropylcellulose) (HPC) 104 % of control | dose: 400.0 mg/kg/injection, schedule: Q01DX009 (ip), vehicle: Klucel (hydroxypropylcellulose) (HPC) 109 % of control

Cc1cc2oc(=O)c3c(c2c(O)c1CN1CCCC1)CCCC3
inactive: dose: 16.0 mg/kg/injection, schedule: Q01DX009 (ip), vehicle: Klucel (hydroxypropylcellulose) (HPC) 97 % of control | dose: 32.0 mg/kg/injection, schedule: Q01DX009 (ip), vehicle: Klucel (hydroxypropylcellulose) (HPC) 101 % of control | dose: 64.0 mg/kg/injection, schedule: Q01DX009 (ip), vehicle: Klucel (hydroxypropylcellulose) (HPC) 103 % of control | dose: 128.0 mg/kg/injection, schedule: Q01DX009 (ip), vehicle: Klucel (hydroxypropylcellulose) (HPC) 97 % of control
